Measurements as given in ChEMBL document CHEMBL2069290, “Synthesis and biological evaluation of novel oxindole derivatives for imaging neurofibrillary tangles in Alzheimer's disease” (Bioorg Med Chem Lett, 2012).

Each molecule was assayed on Kidney (assay: Biodistribution in ddY mouse kidney at 3.3 to 6.7 kBq, iv after 60 mins by gamma counting). Details: in vivo, 1 h.
Type: ADME, organism-based

Drug uptake [% ID/g] | Structure (SMILES)
7.55 | CN(C)c1ccc(/C=C2\Nc3ccc([125I])cc3C2=O)cc1

Each molecule was assayed on Blood (assay: Biodistribution in ddY mouse blood at 3.3 to 6.7 kBq, iv after 2 mins by gamma counting). Details: in vivo.
Type: ADME, organism-based

Drug uptake [% ID/g] | Structure (SMILES)
4.7 | CN(C)c1ccc(/C=C2\Nc3ccc([125I])cc3C2=O)cc1

The molecules below were run on Blood (assay: Biodistribution in ddY mouse blood at 3.3 to 6.7 kBq, iv after 60 mins by gamma counting). Details: in vivo, 1 h.
Type: ADME, organism-based

Drug uptake [% ID/g] | Structure (SMILES)
2.23 | CN(C)c1ccc(/C=C2\Nc3ccc([125I])cc3C2=O)cc1

Each molecule was assayed on Intestine (assay: Biodistribution in ddY mouse intestine at 3.3 to 6.7 kBq, iv after 60 mins by gamma counting). Details: in vivo, 1 h.
Type: ADME, organism-based

Drug uptake [% ID/g] | Structure (SMILES)
10.7 | CN(C)c1ccc(/C=C2\Nc3ccc([125I])cc3C2=O)cc1

The molecules below were run on Pancreas (assay: Biodistribution in ddY mouse pancreas at 3.3 to 6.7 kBq, iv after 10 mins by gamma counting). Details: in vivo.
Type: ADME, organism-based

Drug uptake [% ID/g] | Structure (SMILES)
2.54 | CN(C)c1ccc(/C=C2\Nc3ccc([125I])cc3C2=O)cc1

These molecules were tested on Blood (assay: Biodistribution in ddY mouse blood at 3.3 to 6.7 kBq, iv after 30 mins by gamma counting). Details: in vivo, 0.5 h.
Type: ADME, organism-based

Drug uptake [% ID/g] | Structure (SMILES)
2.06 | CN(C)c1ccc(/C=C2\Nc3ccc([125I])cc3C2=O)cc1

The molecules below were run on Pancreas (assay: Biodistribution in ddY mouse pancreas at 3.3 to 6.7 kBq, iv after 60 mins by gamma counting). Details: in vivo, 1 h.
Type: ADME, organism-based

Drug uptake [% ID/g] | Structure (SMILES)
0.94 | CN(C)c1ccc(/C=C2\Nc3ccc([125I])cc3C2=O)cc1

What follows are molecules tested on Liver (assay: Biodistribution in ddY mouse liver at 3.3 to 6.7 kBq, iv after 10 mins by gamma counting). Details: in vivo.
Type: ADME, organism-based

Drug uptake [% ID/g] | Structure (SMILES)
11.29 | CN(C)c1ccc(/C=C2\Nc3ccc([125I])cc3C2=O)cc1

The molecules below were run on Brain (assay: Biodistribution in ddY mouse brain at 3.3 to 6.7 kBq, iv after 10 mins by gamma counting). Details: in vivo.
Type: ADME, organism-based

Drug uptake [% ID/g] | Structure (SMILES)
1.4 | CN(C)c1ccc(/C=C2\Nc3ccc([125I])cc3C2=O)cc1

The molecules below were run on Liver (assay: Biodistribution in ddY mouse liver at 3.3 to 6.7 kBq, iv after 2 mins by gamma counting). Details: in vivo.
Type: ADME, organism-based

Drug uptake [% ID/g] | Structure (SMILES)
9.81 | CN(C)c1ccc(/C=C2\Nc3ccc([125I])cc3C2=O)cc1

The molecules below were run on Heart (assay: Biodistribution in ddY mouse heart at 3.3 to 6.7 kBq, iv after 30 mins by gamma counting). Details: in vivo, 0.5 h.
Type: ADME, organism-based

Drug uptake [% ID/g] | Structure (SMILES)
2.23 | CN(C)c1ccc(/C=C2\Nc3ccc([125I])cc3C2=O)cc1

The molecules below were run on Brain (assay: Biodistribution in ddY mouse brain at 3.3 to 6.7 kBq, iv after 60 mins by gamma counting). Details: in vivo, 1 h.
Type: ADME, organism-based

Drug uptake [% ID/g] | Structure (SMILES)
0.36 | CN(C)c1ccc(/C=C2\Nc3ccc([125I])cc3C2=O)cc1

These molecules were tested on Heart (assay: Biodistribution in ddY mouse heart at 3.3 to 6.7 kBq, iv after 60 mins by gamma counting). Details: in vivo, 1 h.
Type: ADME, organism-based

Drug uptake [% ID/g] | Structure (SMILES)
2.11 | CN(C)c1ccc(/C=C2\Nc3ccc([125I])cc3C2=O)cc1

These molecules were tested on Stomach (assay: Biodistribution in ddY mouse stomach assessed per organ at 3.3 to 6.7 kBq, iv after 2 mins by gamma counting). Details: in vivo.
Type: ADME, organism-based

Drug uptake [%ID] | Structure (SMILES)
0.96 | CN(C)c1ccc(/C=C2\Nc3ccc([125I])cc3C2=O)cc1

The molecules below were run on Liver (assay: Biodistribution in ddY mouse liver at 3.3 to 6.7 kBq, iv after 60 mins by gamma counting). Details: in vivo, 1 h.
Type: ADME, organism-based

Drug uptake [% ID/g] | Structure (SMILES)
8.9 | CN(C)c1ccc(/C=C2\Nc3ccc([125I])cc3C2=O)cc1

These molecules were tested on Spleen (assay: Biodistribution in ddY mouse spleen at 3.3 to 6.7 kBq, iv after 10 mins by gamma counting). Details: in vivo.
Type: ADME, organism-based

Drug uptake [% ID/g] | Structure (SMILES)
4.46 | CN(C)c1ccc(/C=C2\Nc3ccc([125I])cc3C2=O)cc1

These molecules were tested on Kidney (assay: Biodistribution in ddY mouse kidney at 3.3 to 6.7 kBq, iv after 10 mins by gamma counting). Details: in vivo.
Type: ADME, organism-based

Drug uptake [% ID/g] | Structure (SMILES)
16.57 | CN(C)c1ccc(/C=C2\Nc3ccc([125I])cc3C2=O)cc1

These molecules were tested on Kidney (assay: Biodistribution in ddY mouse kidney at 3.3 to 6.7 kBq, iv after 2 mins by gamma counting). Details: in vivo.
Type: ADME, organism-based

Drug uptake [% ID/g] | Structure (SMILES)
11.93 | CN(C)c1ccc(/C=C2\Nc3ccc([125I])cc3C2=O)cc1

What follows are molecules tested on Kidney (assay: Biodistribution in ddY mouse kidney at 3.3 to 6.7 kBq, iv after 30 mins by gamma counting). Details: in vivo, 0.5 h.
Type: ADME, organism-based

Drug uptake [% ID/g] | Structure (SMILES)
11.38 | CN(C)c1ccc(/C=C2\Nc3ccc([125I])cc3C2=O)cc1

What follows are molecules tested on Heart (assay: Biodistribution in ddY mouse heart at 3.3 to 6.7 kBq, iv after 10 mins by gamma counting). Details: in vivo.
Type: ADME, organism-based

Drug uptake [% ID/g] | Structure (SMILES)
3.42 | CN(C)c1ccc(/C=C2\Nc3ccc([125I])cc3C2=O)cc1

What follows are molecules tested on Spleen (assay: Biodistribution in ddY mouse spleen at 3.3 to 6.7 kBq, iv after 60 mins by gamma counting). Details: in vivo, 1 h.
Type: ADME, organism-based

Drug uptake [% ID/g] | Structure (SMILES)
2.17 | CN(C)c1ccc(/C=C2\Nc3ccc([125I])cc3C2=O)cc1

These molecules were tested on Brain (assay: Biodistribution in ddY mouse brain at 3.3 to 6.7 kBq, iv after 30 mins by gamma counting). Details: in vivo, 0.5 h.
Type: ADME, organism-based

Drug uptake [% ID/g] | Structure (SMILES)
0.63 | CN(C)c1ccc(/C=C2\Nc3ccc([125I])cc3C2=O)cc1

These molecules were tested on Intestine (assay: Biodistribution in ddY mouse intestine at 3.3 to 6.7 kBq, iv after 10 mins by gamma counting). Details: in vivo.
Type: ADME, organism-based

Drug uptake [% ID/g] | Structure (SMILES)
3.17 | CN(C)c1ccc(/C=C2\Nc3ccc([125I])cc3C2=O)cc1

What follows are molecules tested on Stomach (assay: Biodistribution in ddY mouse stomach assessed per organ at 3.3 to 6.7 kBq, iv after 30 mins by gamma counting). Details: in vivo, 0.5 h.
Type: ADME, organism-based

Drug uptake [%ID] | Structure (SMILES)
2.1 | CN(C)c1ccc(/C=C2\Nc3ccc([125I])cc3C2=O)cc1

The molecules below were run on Stomach (assay: Biodistribution in ddY mouse stomach assessed per organ at 3.3 to 6.7 kBq, iv after 60 mins by gamma counting). Details: in vivo, 1 h.
Type: ADME, organism-based

Drug uptake [%ID] | Structure (SMILES)
3.8 | CN(C)c1ccc(/C=C2\Nc3ccc([125I])cc3C2=O)cc1

These molecules were tested on Pancreas (assay: Biodistribution in ddY mouse pancreas at 3.3 to 6.7 kBq, iv after 2 mins by gamma counting). Details: in vivo.
Type: ADME, organism-based

Drug uptake [% ID/g] | Structure (SMILES)
4.4 | CN(C)c1ccc(/C=C2\Nc3ccc([125I])cc3C2=O)cc1

The molecules below were run on Brain (assay: Ratio of drug uptake in ddY mouse brain after 2 mins to drug uptake in ddY mouse brain after 30 mins). Details: in vivo.
Type: ADME, tissue-based

Ratio | Structure (SMILES)
4 | CN(C)c1ccc(/C=C2\Nc3ccc([125I])cc3C2=O)cc1

What follows are molecules tested on Spleen (assay: Biodistribution in ddY mouse spleen at 3.3 to 6.7 kBq, iv after 30 mins by gamma counting). Details: in vivo, 0.5 h.
Type: ADME, organism-based

Drug uptake [% ID/g] | Structure (SMILES)
4.08 | CN(C)c1ccc(/C=C2\Nc3ccc([125I])cc3C2=O)cc1

The molecules below were run on Brain (assay: Biodistribution in ddY mouse brain at 3.3 to 6.7 kBq, iv after 2 mins by gamma counting). Details: in vivo.
Type: ADME, organism-based

Drug uptake [% ID/g] | Structure (SMILES)
2.52 | CN(C)c1ccc(/C=C2\Nc3ccc([125I])cc3C2=O)cc1

Each molecule was assayed on Intestine (assay: Biodistribution in ddY mouse intestine at 3.3 to 6.7 kBq, iv after 30 mins by gamma counting). Details: in vivo, 0.5 h.
Type: ADME, organism-based

Drug uptake [% ID/g] | Structure (SMILES)
7.05 | CN(C)c1ccc(/C=C2\Nc3ccc([125I])cc3C2=O)cc1

Each molecule was assayed on Pancreas (assay: Biodistribution in ddY mouse pancreas at 3.3 to 6.7 kBq, iv after 30 mins by gamma counting). Details: in vivo, 0.5 h.
Type: ADME, organism-based

Drug uptake [% ID/g] | Structure (SMILES)
1.39 | CN(C)c1ccc(/C=C2\Nc3ccc([125I])cc3C2=O)cc1

The molecules below were run on Liver (assay: Biodistribution in ddY mouse liver at 3.3 to 6.7 kBq, iv after 30 mins by gamma counting). Details: in vivo, 0.5 h.
Type: ADME, organism-based

Drug uptake [% ID/g] | Structure (SMILES)
9.85 | CN(C)c1ccc(/C=C2\Nc3ccc([125I])cc3C2=O)cc1

The molecules below were run on Spleen (assay: Biodistribution in ddY mouse spleen at 3.3 to 6.7 kBq, iv after 2 mins by gamma counting). Details: in vivo.
Type: ADME, organism-based

Drug uptake [% ID/g] | Structure (SMILES)
3.2 | CN(C)c1ccc(/C=C2\Nc3ccc([125I])cc3C2=O)cc1

These molecules were tested on Blood (assay: Biodistribution in ddY mouse blood at 3.3 to 6.7 kBq, iv after 10 mins by gamma counting). Details: in vivo.
Type: ADME, organism-based

Drug uptake [% ID/g] | Structure (SMILES)
3.76 | CN(C)c1ccc(/C=C2\Nc3ccc([125I])cc3C2=O)cc1

The molecules below were run on Intestine (assay: Biodistribution in ddY mouse intestine at 3.3 to 6.7 kBq, iv after 2 mins by gamma counting). Details: in vivo.
Type: ADME, organism-based

Drug uptake [% ID/g] | Structure (SMILES)
2.13 | CN(C)c1ccc(/C=C2\Nc3ccc([125I])cc3C2=O)cc1

The molecules below were run on Heart (assay: Biodistribution in ddY mouse heart at 3.3 to 6.7 kBq, iv after 2 mins by gamma counting). Details: in vivo.
Type: ADME, organism-based

Drug uptake [% ID/g] | Structure (SMILES)
7.94 | CN(C)c1ccc(/C=C2\Nc3ccc([125I])cc3C2=O)cc1

Each molecule was assayed on Stomach (assay: Biodistribution in ddY mouse stomach assessed per organ at 3.3 to 6.7 kBq, iv after 10 mins by gamma counting). Details: in vivo.
Type: ADME, organism-based

Drug uptake [%ID] | Structure (SMILES)
1.67 | CN(C)c1ccc(/C=C2\Nc3ccc([125I])cc3C2=O)cc1
